The text below walks through data of PMC7219108, “Pisum sativum Defensin 1 Eradicates Mouse Metastatic Lung Nodules from B16F10 Melanoma Cells” (International Journal of Molecular Sciences, 2020).

Experiment [1] deals with B16F10 cells. Kind of experiment: Glucosylceramide depletion study on Psd1 entrance in B16F10 cells. Format: cell-based, murine. The settings on record: 20 µM PPMP, 1 h, without Psd1. The protocol:
Figure 4 GlcCer reduction inhibits the entrance of FITC-Psd1 into B16F10 cancer cells. B16F10 cells (1.5 × 10^4) were incubated with or without 20 µM PPMP for 1 h followed by treatment with or without 9 µM FITC-Psd1 for 2 h. Fixed cells were stained with Vybrant™ Alexa Fluor™ 594 and DAPI. (a) B16F10 cells without treatments (−PPMP, −Psd1); (b) B16F10 cells treated with Psd1 for 2 h (–PPMP, +Psd1 (2 h)); (c) B16F10 cells treated with PPMP (+PPMP, −Psd1); (d) B16F10 cells treated with PPMP plus Psd1 (+PPMP, +Psd1 (2 h)). Pictures were acquired at 40× magnification. Inset zoom images are at 100× magnification. At least two experiments were performed independently.
B16F10 cells (1.5 × 10^4) in cover glass were previously incubated with 20 µM DL-threo-1-phenyl-2-palmitoylamino-3-morpholino-1-propanol (PPMP, Sigma-Aldrich Brasil, São Paulo, Brazil) inhibitor for 60 min followed by treatment with 9 µM Psd1 for 30 min or 2 h. The cells were fixed on glass slides with 4% paraformaldehyde plus 4% sucrose for 10 min and then stained with a Vybrant Alexa Fluor 594 Lipid Raft Labeling Kit (Thermo Fisher Scientific Inc, Maryland, USA). Briefly, 1.25 µg/mL cholera toxin subunit B (CT-B) and 160× diluted anti-CT-B were incubated with cells for 10 min each at 4 °C. Three PBS wash steps were performed between each stage. […]

The test system of experiment [2] is B16F10 cells. Briefly: SYTOXGreen uptake (membrane permeabilization), B16F10 cells. The settings on record: 0.0001% H2O2, 30 min. The class given is cell-based, murine. The protocol: Figure 2 Psd1 promotes B16F10 live cell membrane permeabilization as monitored by SYTOX Green fluorescence. (A) Psd1 untreated and hydrogen peroxide-treated B16F10 cells. (B) A total of 1.5 × 10^4 B16F10 cells were incubated with 3 or 50 µM Psd1 for 30 min. (C) 1.5 × 10^4 B16F10 cells were incubated with 50 µM Psd1 for 1 h. All experiments were performed at 37 °C. Nucleus staining is shown in green (SYTOXGreen), and mitochondria are shown in red (MitoTracker Red CMXRos). Images are shown at 20× magnification. […] (E) Psd1 induces apoptosis in B16F10 cells. B16F10 cells were treated with 50 µM Psd1 for 24 h and labeled with propidium iodide, and the DNA content was analyzed by flow cytometry for the sub-G0/G1 profile. At least two independent experiments were performed. TEXT PRINTED IN THE PICTURE: (E) Control: Sub-G1: 4.4% | (E) Psd1: Sub-G1: 60.6% (50μM)
Images were obtained in the X, Y, and Z planes of the image, giving the image a 3-dimensional depth (Z-stack) at 100× magnification with a Zeiss Cell Observer Yokogawa Spinning Disk confocal microscope (Cell Observed SD, Carl-Zeiss, Oberkochen, Germany) located in the Microscopia Óptica de Luz Gustavo de Oliveira Castro (Plamol) platform in Universidade Federal do Rio de Janeiro. To measure the mean fluorescence intensity (MFI), Zen Lite Blue (Carl-Zeiss, Oberkochen, Germany) software was used. On average, thirty cells per field were analyzed in fourteen fields by experiments. Then, the region of interest (ROI), specifically the nucleus and mitochondria, was tagged on the cells photographed for fluorescence analysis, which is given by the software from the intensity of the pixels. Subsequently, the statistical test was performed using GraphPad Prism version 7.4, and the values presented are averages with the corresponding standard deviations (SDs).
B16F10 cells were trypsinized and counted, and 1.5 × 10^4 cells/well in DMEM containing 0.1% (w/v) bovine serum albumin BSA were plated in a cell-view glass bottom culture dish with four compartments (Thermo Fisher Scientific Inc, Maryland, USA) and then incubated at 37 °C overnight to adhere. Post-treatment, the cells were treated with 3 or 50 µM Psd1 for 30 or 60 min and maintained at the same temperature. Cells treated with only water or 0.0001% H2O2 for 30 min were used as the negative and positive controls, respectively. Washes with saline were carried out between the additions of each probe followed by incubation at room temperature. The cells were incubated with 1 µL of SG, 1.5 µL of MitoTracker Red CMXRos, and 2 µL of DAPI for 10, 20, and 10 min, respectively. The fluorescent images were acquired by confocal microscopy.

The next experiment addresses T1, recombinant cyclin F-GST.
T1 chain: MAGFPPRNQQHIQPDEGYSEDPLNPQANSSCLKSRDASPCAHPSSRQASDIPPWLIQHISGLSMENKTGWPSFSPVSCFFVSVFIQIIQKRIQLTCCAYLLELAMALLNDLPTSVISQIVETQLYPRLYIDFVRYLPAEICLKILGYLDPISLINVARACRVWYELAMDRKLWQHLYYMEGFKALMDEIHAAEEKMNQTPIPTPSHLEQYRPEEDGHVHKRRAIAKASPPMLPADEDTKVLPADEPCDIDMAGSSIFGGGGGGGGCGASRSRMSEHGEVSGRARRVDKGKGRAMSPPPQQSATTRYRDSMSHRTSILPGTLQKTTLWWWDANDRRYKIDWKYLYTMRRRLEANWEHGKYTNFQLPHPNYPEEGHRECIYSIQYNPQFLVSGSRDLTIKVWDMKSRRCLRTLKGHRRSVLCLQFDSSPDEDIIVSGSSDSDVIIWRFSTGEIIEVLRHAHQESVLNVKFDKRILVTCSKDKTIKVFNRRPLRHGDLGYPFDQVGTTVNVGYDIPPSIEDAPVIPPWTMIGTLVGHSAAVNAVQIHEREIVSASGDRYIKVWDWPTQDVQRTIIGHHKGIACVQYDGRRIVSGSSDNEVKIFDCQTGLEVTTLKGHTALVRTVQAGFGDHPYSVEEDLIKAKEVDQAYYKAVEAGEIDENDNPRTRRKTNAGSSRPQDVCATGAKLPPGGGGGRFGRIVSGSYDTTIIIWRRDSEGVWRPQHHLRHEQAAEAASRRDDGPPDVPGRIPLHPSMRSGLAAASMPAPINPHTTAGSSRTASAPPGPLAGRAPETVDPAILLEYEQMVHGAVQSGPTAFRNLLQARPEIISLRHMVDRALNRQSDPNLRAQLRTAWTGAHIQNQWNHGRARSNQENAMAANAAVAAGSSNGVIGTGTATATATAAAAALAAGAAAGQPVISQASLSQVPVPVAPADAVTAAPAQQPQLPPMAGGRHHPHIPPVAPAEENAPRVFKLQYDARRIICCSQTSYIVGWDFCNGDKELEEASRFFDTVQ
Kind of experiment: SPR; Biacore X, CM5 chip, 25 °C; cyclin F-GST immobilised by amine coupling (10 mM sodium acetate pH 4.0); Psd1 10-240 µM injected at 15 µL/min for 4 min in 10 mM HEPES, 150 mM NaCl, pH 7.4; Psd1-GST curves subtracted; global fit, 1:1 Langmuir model. Particulars: both partners purified.

For the molecule `CCCCCCCCCCCCCCCC(=O)N[C@H](CN1CCOCC1)[C@H](O)c1ccccc1` (racemic) [PPMP, DL-threo-1-phenyl-2-palmitoylamino-3-morpholino-1-propanol], in the experiment with B16F10 cells [1], the “CT-B / Alexa Fluor 594 red signal (lipid raft; GlcCer)” value was “significant reduction in the bright red signal”.
Consider `OO` [hydrogen peroxide, reference compound], for which the “SYTOXGreen fluorescence, positive control” value in the experiment with B16F10 cells [2] is recorded as “green fluorescence signal increased significantly”.

B1: Pisum sativum defensin 1 (peptide, UniProt P81929 1-46, looked up)
chain: KTCEHLADTYRGVCFTNASCDDHCKNKAHLISGTCHNWKCFCTQNC
notes: Pisum sativum defensin 1 (Psd1), 46-amino acid residue plant defensin from pea seeds; also called Psd1; pea defensin Psd1; source: expressed and purified as previously described [11], first step HiPrep 26/60 Sephacryl S-100 HR; the abstract says Psd1 can be expressed in Pichia pastoris
Regarding B1, the Kd with recombinant cyclin F-GST is 1500 µM.

A word on the Kd: it is a measure of binding affinity in units of concentration.
